The values that follow are results of earlier work, collected in patent publication US12582591B2, “Increased solubilization of ethylhexyl triazone” (DSM IP Assets B.V., priority 2020, dated 2026).

For this data set the following is noted: for Solubility in esters and alcohols: particularly ethyl acetate, ethanol / alcohols.
[1] abbreviates: listed as UV-filter of the formula (I).

Structures are written as SMILES. Read-outs that look alike come from different tables or passages of the source.

Turning to `CCCCC(CC)COC(=O)c1ccc(Nc2nc(Nc3ccc(C(=O)OCC(CC)CCCC)cc3)nc(Nc3ccc(C(=O)OCC(CC)CCCC)cc3)n2)cc1` (stereo not shown) [Ethylhexyl triazone, ethylhexyl triazone], the “Solubility in esters and alcohols” value was “moderate solubility”; the “Solubility in water and alkanes” value is recorded as “very low”. Further, under setting [1], the “Solubility in esters and alcohols” value is recorded as “very soluble”; the “Solubility in water and alkanes” value is “insoluble”.
